Reference: US6831199B1, “Pyrimidine compounds and derivatives thereof” (G. D. Searle & Co., priority 1995, dated 2004)
Structures can show the parent of a compound that is named as a salt.

Key:
platelet rich plasma = test: Human platelet rich plasma assay (ADP induced platelet aggregation); format: cell-based; conditions: Homo sapiens, Platelet, ADP induced platelet aggregation in human platelet rich plasma; read-out: Human PRP
Summary of the method: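 Citrated platelet-rich plasma from aspirin-free healthy human donors was stirred at 37 °C and preincubated with compound for 1 min. Aggregation was then triggered with ADP (added as a 200 uM solution) and recorded photometrically for 3 min. Dose–response curves were built from % inhibition of the maximal saline-control response.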

[1] = target: T1, Human fibrinogen receptor (αIIbβ3) (Homo sapiens, UniProt P05106+P08514); test: Purified IIb/IIIa receptor assay (solid phase receptor assay, competition with biotinylated vitronectin); format: binding; conditions: read-out: IIb/IIIa IC50
T1 construct: Human fibrinogen receptor (αIIbβ3) was purified from outdated platelets; from tissue; host or cells: outdated human platelets
T1 sequence (P08514 32-887 limits assumed): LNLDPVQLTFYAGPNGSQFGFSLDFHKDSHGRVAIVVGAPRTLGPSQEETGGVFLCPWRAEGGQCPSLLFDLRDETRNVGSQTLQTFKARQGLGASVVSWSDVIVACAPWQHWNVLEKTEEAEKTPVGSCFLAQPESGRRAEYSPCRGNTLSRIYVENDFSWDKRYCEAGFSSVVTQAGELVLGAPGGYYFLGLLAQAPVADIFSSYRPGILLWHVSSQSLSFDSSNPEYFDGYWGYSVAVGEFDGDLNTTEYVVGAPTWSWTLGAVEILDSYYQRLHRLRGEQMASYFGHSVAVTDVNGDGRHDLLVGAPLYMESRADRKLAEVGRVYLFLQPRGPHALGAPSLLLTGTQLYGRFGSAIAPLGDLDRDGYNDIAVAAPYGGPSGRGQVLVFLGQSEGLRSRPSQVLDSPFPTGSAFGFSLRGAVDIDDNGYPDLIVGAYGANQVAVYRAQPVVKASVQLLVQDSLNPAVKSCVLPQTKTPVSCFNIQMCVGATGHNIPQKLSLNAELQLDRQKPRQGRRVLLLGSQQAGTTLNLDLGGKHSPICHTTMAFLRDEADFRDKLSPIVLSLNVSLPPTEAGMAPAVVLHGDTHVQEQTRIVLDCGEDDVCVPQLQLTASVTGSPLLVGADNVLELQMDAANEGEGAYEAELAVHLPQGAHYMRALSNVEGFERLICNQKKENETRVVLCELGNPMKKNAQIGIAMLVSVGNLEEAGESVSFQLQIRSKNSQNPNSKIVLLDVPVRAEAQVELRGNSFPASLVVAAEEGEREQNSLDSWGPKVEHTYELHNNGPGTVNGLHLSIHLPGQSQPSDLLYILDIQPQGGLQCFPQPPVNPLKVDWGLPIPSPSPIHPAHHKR
T1 sequence (P08514 891-1039 limits assumed): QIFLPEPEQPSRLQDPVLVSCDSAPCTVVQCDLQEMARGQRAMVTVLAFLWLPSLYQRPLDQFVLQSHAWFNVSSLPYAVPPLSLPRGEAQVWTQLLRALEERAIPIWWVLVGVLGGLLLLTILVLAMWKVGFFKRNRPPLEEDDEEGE
T1 sequence (P05106 27-788): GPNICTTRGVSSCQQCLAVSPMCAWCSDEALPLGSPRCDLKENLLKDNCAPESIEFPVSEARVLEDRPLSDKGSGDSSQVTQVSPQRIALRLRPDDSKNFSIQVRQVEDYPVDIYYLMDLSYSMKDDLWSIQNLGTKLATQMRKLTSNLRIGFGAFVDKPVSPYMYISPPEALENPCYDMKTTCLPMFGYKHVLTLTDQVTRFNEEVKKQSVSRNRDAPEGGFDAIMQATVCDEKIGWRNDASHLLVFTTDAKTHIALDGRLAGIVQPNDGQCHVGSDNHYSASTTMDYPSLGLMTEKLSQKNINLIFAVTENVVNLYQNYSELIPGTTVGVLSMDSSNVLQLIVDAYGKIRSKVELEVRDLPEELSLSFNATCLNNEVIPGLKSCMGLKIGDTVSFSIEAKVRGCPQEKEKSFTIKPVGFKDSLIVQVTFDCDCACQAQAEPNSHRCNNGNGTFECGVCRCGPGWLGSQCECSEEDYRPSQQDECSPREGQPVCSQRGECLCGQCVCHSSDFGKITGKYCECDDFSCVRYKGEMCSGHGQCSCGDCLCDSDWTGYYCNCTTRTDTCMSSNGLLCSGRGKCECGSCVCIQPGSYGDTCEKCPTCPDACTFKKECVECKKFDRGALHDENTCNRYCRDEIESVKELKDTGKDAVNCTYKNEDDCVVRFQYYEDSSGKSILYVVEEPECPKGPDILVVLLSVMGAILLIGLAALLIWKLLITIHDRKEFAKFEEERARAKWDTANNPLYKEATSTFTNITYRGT
Summary of the method: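 Competition format: 1 nM biotinylated vitronectin plus test compound (highest 1.0×10^−4 M), 2 h at room temperature on wells coated with platelet-derived αIIbβ3. Buffer was TBS containing 1.0 mM Ca, Mg, Mn, pH 7.4. HRP anti-biotin readout at 450 nm; normalized to maximum binding, four-parameter curve fit.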

M21 human melanoma cells = test: M21 melanoma cell adhesion assay (αvβ3-dependent adhesion to human fibrinogen-coated plates); format: cell-based; conditions: Homo sapiens, M21; read-out: M21 Melanoma Cells IC50
Experimental: M21 MELANOMA CELL ADHESION ASSASY
This assay involves an αvβ3-dependent adhesion of M21 human melanoma cells to human fibrinogen-coated plastic tissue culture dishes.
Fibrinogen was purified from human plasma. Fibronectin and plasminogen were eliminated from the preparation by passing the sample over gelatin-sepharose 4B and lysine-sepharose 4B resins, respectively. The fibrinogen is diluted to 10 μg/mL in coating buffer ([…] Tris-HCl, 150 mM NaCl, pH 7.4). 100 μL of diluted fibrinogen is added to each well of a 96-well Immulon 2 microtiter plate (Dynatech; Chantilly, Va.) and allowed to coat overnight at 4° C. Plates are blocked with 1% BSA (Miles/Pentex; Kankakee, Ill.) in adhesion buffer (Hank's balanced salt solution without Ca^++ or Mg^++ [HBSS−−], 50 mM Hepes, 1 mg/mL BSA, pH 7.4) for 1 hour at 37° C.
M21 human melanoma cells were provided by Dr. J. Smith, La Jolla Cancer Research Institute. M21 cells are harvested from tissue culture flasks by washing with HBSS−− and adding cell dissociation solution (Sigma) and incubating for 5 minutes at 37° C. Harvested cells are washed 3 times with adhesion assay buffer containing 200 μM Mn^++. Cells are counted and suspended to a density of 2×10^6/mL in adhesion assay buffer containing 200 μM Mn^++. M21 cells are pre-incubated with antagonists of αvβ3 for 30 minutes at room temperature. Following the pre-incubation, the solutions containing a mixture of cells and antagonists are added to each well of the microtiter plate and allowed to bind for 30 minutes at 37° C.
Following adhesion, plates are gently washed 3 times with 200 μL of wash buffer (50 mM Tris-HCl, 150 mM NaCl, pH 7.4) using large bore pipet tips. Plates are briefly blotted dry and 100 μL of cell lysis buffer (50 mM sodium acetate, pH 5.0, 0.5% Triton X-100, 0.3 mg/mL p-nitrophenyl phosphate [Sigma] is added to each well. Plates are incubated for 60 minutes at 37° C. and 50 μL of 1N NaOH is added to stop the reaction. The absorbance of the wells at […] is read using an automatic plate reader.

Row | Compound | IC50 (platelet rich plasma) [nM] | IC50 [1] [nM] | IC50 (M21 human melanoma cells) [nM]
1 | N=C(N)Nc1cccc(C(=O)NCC(=O)NC(CCS(=O)(=O)c2ccccc2C(=O)O)CC(=O)O)c1 (racemic) [60(C), (±)2-[3-[[2-[[[3-[(aminoiminomethyl)amino]phenyl]carbonyl]amino]acetyl]amino]-4-carboxybutyl]sulfonyl]benzoic acid, trifluoroacetate] | > 200000 | 16.4 | 0.74
2 | N=C(N)Nc1cccc(C(=O)NCC(=O)NC(CC(=O)O)c2ccccc2)c1 (racemic) [Example 4, (±)β-[[2-[[[3-[(aminoiminomethyl)amino]phenyl]carbonyl]amino]acetyl]amino]benzene-propanoic acid, trifluoroacetate salt] | > 200000 | 473 | 3.3
3 | N=C(N)Nc1cc(C(=O)NCC(=O)NC(CC(=O)O)c2cccnc2)c2ccccc2c1 (racemic) [Example 8, (±)β-[[2-[[[3-[(aminoiminomethyl)amino]naphthalen-1-yl]carbonyl]amino]acetyl]amino]pyridine-3-propanoic acid, bis(trifluoroacetate)salt] | 73300 | 9.83 | 0.28
4 | O=C(O)CC(NC(=O)CNC(=O)c1cccc(NC2=NCCN2)c1)c1cccnc1 (racemic) [Example 10, (±)β-[[2-[[[3-[(4,5-dihydro-1H-imidazol-2-yl)amino]phenyl]carbonyl]amino]acetyl]amino]pyridine-3-propanoic acid, bis(trifluoroacetate)salt] | > 200000 | 54.4 | 1.82
5 | O=C(O)CC(NC(=O)CNC(=O)c1cccc(NC2=NCCCCC2)c1)c1cccnc1 (racemic) [Example 12, (±)β-[[2-[[[3-[(3,4,5,6-tetrahydro-2H-azepin-7-yl)amino]phenyl]carbonyl]amino]acetyl]amino]pyridine-3-propanoic acid, bis(trifluoroacetate)salt] | > 200000 | 595 | 9.32
6 | O=C(O)CC(NC(=O)CNC(=O)c1cccc(NC2=NCCCCC2)c1)c1ccc2c(c1)OCO2 (racemic) [Example 14, (±)β-[[2-[[[3-[(3,4,5,6-tetrahydro-2H-azepin-7-yl)amino]phenyl]carbonyl]amino]acetyl]amino]-1,3-benzodioxole-5-propanoic acid, TFA salt] | > 200000 | 139 | 5.42
7 | O=C(O)CC(NC(=O)CNC(=O)c1cccc(NC2=NCCCCC2)c1)c1ccccc1 (racemic) [Example 15, (±)β-[[2-[[[3-[(3,4,5,6-tetrahydro-2H-azepin-7-yl)amino]phenyl]carbonyl]amino]acetyl]amino]benzenepropanoic acid, trifluoroacetate salt] | > 200000 | 3830 | 202
8 | N=C(NCc1ccccc1)Nc1cccc(C(=O)NCC(=O)NC(CC(=O)O)c2cccnc2)c1 (racemic) [Example 24, (±)β-[[2-[[[3-[[imino[(phenylmethyl)amino]methyl]amino]phenyl]carbonyl]amino]acetyl]amino]pyridine-3-propanoic acid, bis(trifluoroacetate)salt] | > 200000 | 58.6 | 12.7
9 | O=C(O)CC(NC(=O)CNC(=O)c1cccc(NC2=NCCC2)c1)c1cccnc1 (stereo not drawn) [Example 17, β-[[2-[[[3-[(3,4-dihydro-2H-pyrrol-5-yl)amino]phenyl]carbonyl]amino]acetyl]amino]pyridine-3-propanoic acid, bis(trifluoroacetate)salt] | > 200000 | 137 | 3.64

The remaining lines, values ahead:

Row | IC50 (platelet rich plasma) [nM] | IC50 [1] [nM] | IC50 (M21 human melanoma cells) [nM] | Compound
10 | > 200000 | 1580 | 143 | N=C(N)Nc1cccc(C(=O)NCC(=O)NC(CC(=O)O)c2cc(C(F)(F)F)cc(C(F)(F)F)c2)c1 (racemic) [Example 36, (±)β-[[2-[[[3-[(aminoiminomethyl)amino]phenyl]carbonyl]amino]acetyl]amino]-3,5-bis(trifluoromethyl)benzenepropanoic acid, trifluoroacetate salt]
11 | > 200000 | 4270 | 1.18 | O=C(O)CC(NC(=O)CNC(=O)c1cccc(NC(=O)NCc2ccccc2)c1)c1cccnc1 (racemic) [Example 47, (±)β-[[2-[[[3-[[[(phenylmethyl)amino]carbonyl]amino]phenyl]carbonyl]amino]acetyl]amino]pyridine-3-propanoic acid, hydrochloride salt]
12 | > 200000 | 139 | 11.7 | N=C(N)Nc1cccc(C(=O)NCC(=O)NC(CC(=O)O)c2ccoc2)c1 (racemic) [Example 52, (±)β-[[2-[[[3-[(aminoiminomethyl)amino]phenyl]carbonyl]amino]acetyl]amino]furan-3-propanoic acid, trifluoroacetate salt]
13 | > 200000 | 65.3 | 6.87 | N=C(N)Nc1cccc(C(=O)NCC(=O)NC(CC(=O)O)c2ccc3ccccc3c2)c1 (racemic) [Example 56, (±)β-[[2-[[[3-[(aminoiminomethyl)amino]phenyl]carbonyl]amino]acetyl]amino]naphthalene-2-propanoic acid, trifluoroacetate salt]
14 | > 200000 | 172 | 24.3 | N=C(N)Nc1cccc(C(=O)NCC(=O)NC(CC(=O)O)c2ccsc2)c1 (racemic) [Example 59, (±)β-[[2-[[[3-[(aminoiminomethyl)amino]phenyl]carbonyl]amino]acetyl]amino]thiophene-3-propanoic acid, trifluoroacetate salt]
15 | > 200000 | 192 | 228 | N=C(N)Nc1cccc(C(=O)NCC(=O)NC(CC(=O)O)c2cccs2)c1 (racemic) [Example 61, (±)β-[[2-[[[3-[(aminoiminomethyl)amino]phenyl]carbonyl]amino]acetyl]amino]thiophene-2-propanoic acid, trifluoroacetate salt]
16 | > 100000 | 73.7 | 2.51 | Cc1ccc(SCCC(CC(=O)O)NC(=O)CNC(=O)c2cccc(NC(=N)N)c2)cc1 (racemic) [Example 66, (±)3-[[2-[[[3-[(aminoiminomethyl)amino]phenyl]carbonyl]amino]acetyl]amino]-5-[(4-methylphenyl)thio]pentanoic acid, trifluoroacetate salt]
17 | > 200000 | 92.3 | 4.08 | Cc1ccc(S(=O)(=O)CCC(CC(=O)O)NC(=O)CNC(=O)c2cccc(NC(=N)N)c2)cc1 (racemic) [Example 67, (±)3-[[2-[[[3-[(aminoiminomethyl)amino]phenyl]carbonyl]amino]acetyl]amino]-5-[(4-methylphenyl)sulfonyl]pentanoic acid, trifluoroacetate salt]
18 | > 200000 | 97.7 | 11 | Cc1ccc(C(=O)NCC(=O)NC(CC(=O)O)c2cccnc2)cc1NC(=N)N (racemic) [Example 83, (±)β-[[2-[[[3-[(aminoiminomethyl)amino]-4-methylphenyl]carbonyl]amino]acetyl]amino]pyridine-3-propanoic acid, bis(trifluoroacetate)salt]
19 | > 200000 | 945 | 52.3 | Cc1ccc(O)c(C(CC(=O)O)NC(=O)CNC(=O)c2cccc(NC(=N)N)c2)c1 (racemic) [Example 88, (±)β-[[2-[[[3-[(aminoiminomethyl)amino]phenyl]carbonyl]amino]acetyl]amino]-2-hydroxy-5-methylbenzenepropanoic acid, trifluoroacetate salt]
20 | > 200000 | 424 | 320 | C#C[C@H](CC(=O)O)NC(=O)CNC(=O)c1cccc(NC2=NCCCCC2)c1 [Example 30, βS-[[2-[[[3-[(3,4,5,6-tetrahydro-2H-azepin-7-yl)amino]phenyl]carbonyl]amino]acetyl]amino]-4-pentynoic acid, trifluoroacetate salt]
